Common to all, as to format: functional, cell-based
For experiment [1], the system named is MCF7. Briefly: Cytotoxicity against human MCF7 cells after 44 hrs by SRB assay. To be noted: MCF7, 44 h.
The test system of experiment [2] is HeLa. Description: Cytotoxicity against human HeLa cells after 44 hrs by SRB assay.
Experiment [3] deals with MKN-28. Briefly: Cytotoxicity against human MKN28 cells after 44 hrs by SRB assay. To be noted: MKN-28, 44 h. Background: In SRB staining, fixed cells bind dye roughly in proportion to their protein.
In experiment [4] the test system is KB. Briefly: Cytotoxicity against human KB cells after 44 hrs by SRB assay.

The values that follow come from ChEMBL document CHEMBL2429712, “Synthesis and cytotoxicity of (3)-3-acetyloxy-5(6)-androsten-7-one oxime and 3,5(6)-androstadien-7-one oxime” (Med Chem Res, 2013).

On to `CC(=O)O[C@H]1CC[C@@]2(C)C(=CC(=O)[C@H]3[C@@H]4CCC[C@@]4(C)CC[C@@H]32)C1`, for which the IC50 (as a rule, the concentration at which inhibition is half-maximal) in experiment [1] worked out at 39.5 µM; in experiment [2], 34 µM; in experiment [3], 48.5 µM; in experiment [4], 62 µM.
The matching figures for `CC(=O)O[C@H]1CC[C@@]2(C)C(=C/C(=N\O)[C@H]3[C@@H]4CCC[C@@]4(C)CC[C@@H]32)C1`: 10.2 µM, 12.8 µM, 18.1 µM and 26 µM.
`C[C@@]12CCC[C@H]1[C@@H]1C(=O)C=C3C=CCC[C@]3(C)[C@H]1CC2`: the IC50 in experiment [1] was 52.2 µM; in experiment [2], 62.4 µM; in experiment [3], 64.3 µM; in experiment [4] it was above 80 µM.
With `C[C@@]12CCC[C@H]1[C@@H]1/C(=N\O)C=C3C=CCC[C@]3(C)[C@H]1CC2`, the IC50 in experiment [1] turned out to be 19.8 µM; in experiment [2] it was 22.2 µM; in experiment [3], 36.1 µM; in experiment [4], 28.5 µM.
For `COc1cccc2c1C(=O)c1c(O)c3c(c(O)c1C2=O)C[C@@](O)(C(=O)CO)C[C@@H]3O[C@H]1C[C@H](N)[C@H](O)[C@H](C)O1` [DOXORUBICIN], the IC50 was determined as 0.22 µM in experiment [3] and 0.028 µM in experiment [4].
